Results: patent publication US8013153B2, “Substituted pyrimidine kinase inhibitors” (Janssen Pharmaceutica, N.V., priority 2006, dated 2011)

System: A375 human skin melanoma
Assay: In vivo inhibition of tumor growth, A375 model
Parameters: species or system athymic nude mice
Description: Female Nu/Nu˜nuBR athymic nude mice (obtained from Charles River Laboratories), at the age of 5-6 weeks were feed water and an irradiated standard rodent diet ad libitum, and housed in specific pathogen-free conditions, according to the guidelines of the American Association for Accreditation of Lab Animal Care (AALAC).
Mice were implanted subcutaneously in the right hind flank with the various tumor cell suspensions in HBSS containing 10% FBS: A431 human epidermoid carcinoma (4×10^6 cells/mouse), HCT116 human colorectal carcinoma (4×10^6 cells/mouse) and A375 human skin melanoma (2×10^6 cells/mouse).
The A431 epidermoid carcinoma cell line was chosen due to its ability to secrete VEGF in culture and its dependency on VEGF for angiogenesis and growth in vivo (Viloria-Petit A, Crombet T, Jothy S, et al. (2001) Cancer Res 61: 5090-5101). The HCT116 colon carcinoma cell line is dependent on the expression of VEGF to form tumors in nude mice (Okada F, Rak J, St. Croix B, et al. (1998) Proc Natl Acad Sci USA 95: 3609-3614). […]
In the A375 model, Compound 50 was administered at 100 mg/kg, qd. Treatment ended after 28 days, then tumor growth delay was analyzed to day 60.
The tumors were allowed to establish growth for 10 to 14 days. Tumor size was measured every 3 days. […]
Tumor measurements and body weights were recorded individually (2×/week) during the treatment period of the experiment. Tumors were measured using a digital caliper. Data was recorded/calculated using Study Director software (StudyLog Systems, Inc.) and graphs were created in GraphPad Prizm.
The volume of each tumor in an animal was calculated according to the formula: (D×d^2)/2, where the diameters were determined from two orthogonal measurements on each tumor. The mean tumor volume was determined by averaging all tumor volumes in each group. The mean body weight was determined by averaging all body weights in each group.
The standard deviation was calculated according to the formula (where x was the tumor volume): [Σx^2−((Σx)2/n)]/n−1 […]

Which results are given for CCNC(=O)Nc1ccc(Oc2ncnc(N)c2/C=N/OC)cc1Cl [Cpd 50, 1-{4-[6-amino-5-(methoxyimino-methyl)-pyrimidin-4-yloxy]-2-chloro-phenyl}-3-ethyl-urea]?
tumor growth delay maintained after completion of treatment (100 mg/kg qd for 28 days): 3 weeks; body weights of treated animals (28 days of continuous dosing, 100 mg/kg): comparable to the control group; inhibition of growth (daily doses of 100 mg/kg, oral, 28 days): 90%
